Laboratory results taken from patent publication EP2000140A1, “Use of derivatives of 3-oxo-2,3-dihydro-5H-thiazolo[3,2-a]pyrimidine or of 3-oxo-2,3-dihydro-5H-imidazolo[3,2-a]pyrimidine for the preparation of pharmaceutical compositions intended for the treatment of cancer” (INSTITUT NATIONAL DE LA SANTE ET DE LA RECHERCHE MEDICALE …, priority 2007, dated 2008).
Counter-ions that a name gives are not always drawn. Like-named read-outs stand apart in the source and are kept apart here.

How the values were obtained:
[1] = molecular target: T1, MBP-CDC25B3 recombinant enzyme (Homo sapiens, UniProt P30305); experiment: In vitro enzymatic assay (fluorescein diphosphate as substrate); format: biochemical; conditions: recombinant fused MBP-CDC25B protein, fluorescein diphosphate 30 µM as substrate, concentration response up to 100 µM
T1 construct: made in house
T1 sequence (P30305 1-580): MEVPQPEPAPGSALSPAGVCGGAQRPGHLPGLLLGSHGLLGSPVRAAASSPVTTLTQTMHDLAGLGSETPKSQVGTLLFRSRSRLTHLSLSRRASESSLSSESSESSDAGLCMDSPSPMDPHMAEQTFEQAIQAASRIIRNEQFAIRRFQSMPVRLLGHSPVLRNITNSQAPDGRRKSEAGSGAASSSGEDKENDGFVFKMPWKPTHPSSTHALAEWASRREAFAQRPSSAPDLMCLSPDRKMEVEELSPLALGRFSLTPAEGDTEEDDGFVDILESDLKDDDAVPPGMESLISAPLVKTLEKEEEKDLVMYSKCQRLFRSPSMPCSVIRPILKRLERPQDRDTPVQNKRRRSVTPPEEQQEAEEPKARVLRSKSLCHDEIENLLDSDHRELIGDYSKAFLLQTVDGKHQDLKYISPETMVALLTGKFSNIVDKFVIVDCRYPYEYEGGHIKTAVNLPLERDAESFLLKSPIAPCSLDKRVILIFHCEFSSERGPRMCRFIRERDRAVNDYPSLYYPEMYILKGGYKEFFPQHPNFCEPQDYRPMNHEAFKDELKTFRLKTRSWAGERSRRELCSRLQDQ
Protocol: The activity of the MBP-CDC25B3 recombinant enzyme was monitored using fluorescein diphosphate as the substrate. The assay was performed in 96-well plates in a final volume of 200 µL. The maltose binding protein-CDC25B3 was kept in elution buffer [50mM phosphate pH 7.5, 300 mM NaCl, 500 mM imidazole, 10% glycerol]. It was diluted in assay buffer [30 mM Tris-HCl (pH 8.2), 75 mM NaCl, 0.67 mM EDTA, 0.033% BSA, 1 mM DTT]. The final concentration of CDC25B3 was 75 ng/well. Products were studied in a concentration response up to 100 µM. The reaction was initiated by addition of 30 µM of fluorescein diphosphate followed by immediate measure of fluorescein emission with a Fluoroskan Ascent (Lab Systems; excitation filter: 485 nm, emission filter: 530 nm). The results are expressed as the means of at least two independent experiments with three determinations per tested concentration and per experiment. For each compound, the drug concentration required for 50% inhibition (IC50) was determined from a sigmoidal dose-response curve using GraphPad Prism (GraphPad Software, San Diego, CA).
The compounds of formula (I) were evaluated for in vitro enzymatic activity inhibition on the recombinant fused MBP-CDC25B protein with fluorescein diphosphate as the substrate.

HeLa cells = experiment: Clonogenic assay (cloning inhibition, colony counting after crystal violet staining); format: cell-based; conditions: 10 days incubation
Protocol: For cloning inhibition assays, HeLa cells were plated at 100 cells/well in 6-well tissue culture plates with 2.5 mL of medium/well. After 24 h growing at 37 °C in a humidified atmosphere of 5% CO2, the culture medium was replaced by control medium or medium containing inhibitors at increasing concentrations (up to 100 µM) and incubated for 10 days. Cells were then washed with […] phosphate-buffered saline and fixed in 10% formaldehyde for 30 minutes at room temperature. They were carefully rinsed with water, stained with 1 mL crystal violet (2 g in 100 mL ethanol, then 2 mL in 100 mL water) for 10 minutes and finally rinsed with water. The plating efficiency was determined by counting the colonies. The results are expressed as the means of two independent experiments with three determinations per tested concentration. For each compound, the IC50 was determined from a sigmoidal dose-response using GraphPad Prism (GraphPad Software, San Diego, CA).
The effects on cell proliferation were further investigated in a clonogenic assay on HeLa cells. HeLa cells were treated at day 1 with increasing concentration of drugs and then plated for an additional 10-day. After crystal violet staining and colony counting, dose-response curve were drawn and the IC50 values determined.

[2] = Homo sapiens, 240 h, read-out: IC50

Row | Structure (SMILES) | IC50 [1] [µM] | IC50 (HeLa cells; mesylate) [µM] | IC50 (HeLa cells; Homo sapiens, HeLa, 240 h) [µM] | IC50 (HeLa cells; [2]) [µM]
1 | CCOC(=O)C1=C(C)N=c2sc(=Cc3ccc(O)cc3)c(=O)n2C1c1ccc2c(c1)OCO2 (centres unmarked) [(1a), ethyl 5-(benzo[1,3]dioxol-5-yl)-2-(4-hydroxybenzylidene)-7-methyl-3-oxo-2,3-dihydro-5H-thiazolo[3,2-a]pyrimidinium-6-carboxylate mesylate] | 6 | 14.8 | – | –
2 | COC(=O)C1=C(C)N=c2sc(=Cc3ccc(O)cc3)c(=O)n2C1c1ccc2c(c1)OCO2 (centres unmarked) [(12a), methyl 5-(benzo[1,3]dioxol-5-yl)-2-(4-hydroxybenzylidene)-7-methyl-3-oxo-2,3-dihydro-5H-thiazolo[3,2-a]pyrimidine-6-carboxylate] | 9.2 | – | – | –
3 | CCOC(=O)C1=C(C)N=c2sc(=Cc3ccc(O)cc3)c(=O)n2C1c1ccc2c(c1)OCO2 (stereo not drawn) [Compound 1, ethyl 5-(benzo[1,3]dioxol-5-yl)-2-(4-hydroxybenzylidene)-7-methyl-3-oxo-2,3-dihydro-5H-thiazolo[3,2-α]pyrimidine-6-carboxylate] | 13 | – | 15.9 | –
4 | CCOC(=O)C1=C(C)N=c2sc(=Cc3cc(Br)c(O)c(Br)c3)c(=O)n2C1c1ccc2c(c1)OCO2 (centres unmarked) [Compound 12, ethyl 5-(benzo[1,3]dioxol-5-yl)-2-(3,5-dibromo-4-hydroxybenzylidene)-7-methyl-3-oxo-2,3-dihydro-5H-thiazolo[3,2-a]pyrimidine-6-carboxylate] | 16.7 | – | – | 9.75
5 | CCOC(=O)C1=C(C)N=c2sc(=Cc3ccc(OC(C)=O)c(OC(C)=O)c3)c(=O)n2C1c1ccc2c(c1)OCO2 (centres unmarked) [Compound (5a), ethyl 2-(3,4-diacetoxybenzylidene)-5-(benzo[1,3]dioxol-5-yl)-7-methyl-3-oxo-2,3-dihydro-5H-thiazolo[3,2-a]pyrimidine-6-carboxylate] | 1.2 | – | – | 1.8
6 | CCOC(=O)C1=C(C)N=c2sc(=Cc3ccc(OC(C)=O)c(OC(C)=O)c3)c(=O)n2C1c1ccc(OC)c(OC)c1 (centres unmarked) [Compound (5b), ethyl 2-(3,4-diacetoxybenzylidene)-5-(3,4-dimethoxyphenyl)-7-methyl-3-oxo-2,3-dihydro-5H-thiazolo[3,2-a]pyrimidine-6-carboxylate] | 2.9 | – | – | 3.5
